Source: PubChem BioAssay AID248 (DTP/NCI, 2004)
Values joined by “and” are separate entries in the source; they are usually repeats but may differ in a detail not shown here. Equal entries are not always repeated. Toxic doses and inconclusive results are not listed. Rule as the data show it: active = T/C of 150% or more; inactive = T/C below 125%.

Test system: L1210 leukemia ip in BDF1 mice, survival T/C
Experiment: NCI In Vivo Anticancer Drug Screen. Data for tumor model L1210 Leukemia (intraperitoneal) in B6D2F1 (BDF1) mice
Conditions: endpoint: mean survival time, higher = longer survival
Outline: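 Value reflects the ratio of survival in compound-treated mice to survival in vehicle-treated controls, with both groups carrying the same transplanted tumor.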

[1] = dose: 100.0 mg/kg/injection, schedule: Q01DX009 (ip), vehicle: saline with Tween-80
[2] = dose: 100.0 mg/kg/injection, schedule: Q04DX003 (ip), vehicle: saline with Tween-80
[3] = dose: 200.0 mg/kg/injection, schedule: Q01DX009 (ip), vehicle: saline with Tween-80
[4] = dose: 200.0 mg/kg/injection, schedule: Q04DX003 (ip), vehicle: saline with Tween-80
[5] = dose: 400.0 mg/kg/injection, schedule: Q01DX009 (ip), vehicle: saline with Tween-80
[6] = dose: 400.0 mg/kg/injection, schedule: Q04DX003 (ip), vehicle: saline with Tween-80
[7] = dose: 100.0 mg/kg/injection, schedule: Q04DX002 (ip), vehicle: Klucel (hydroxypropylcellulose) (HPC)
[8] = dose: 200.0 mg/kg/injection, schedule: Q04DX002 (ip), vehicle: Klucel (hydroxypropylcellulose) (HPC)
[9] = dose: 400.0 mg/kg/injection, schedule: Q04DX002 (ip), vehicle: Klucel (hydroxypropylcellulose) (HPC)
[10] = dose: 25.0 mg/kg/injection, schedule: Q04DX003 (ip), vehicle: saline
[11] = dose: 50.0 mg/kg/injection, schedule: Q04DX003 (ip), vehicle: saline
[12] = dose: 100.0 mg/kg/injection, schedule: Q01DX001 (ip), vehicle: saline with Tween-80
[13] = dose: 100.0 mg/kg/injection, schedule: Q04DX003 (ip), vehicle: saline
[14] = dose: 100.0 mg/kg/injection, schedule: Q01DX009 (ip), vehicle: Klucel (hydroxypropylcellulose) (HPC)
[15] = dose: 100.0 mg/kg/injection, schedule: Q04DX003 (ip), vehicle: Klucel (hydroxypropylcellulose) (HPC)
[16] = dose: 200.0 mg/kg/injection, schedule: Q01DX009 (ip), vehicle: Klucel (hydroxypropylcellulose) (HPC)
[17] = dose: 200.0 mg/kg/injection, schedule: Q04DX003 (ip), vehicle: Klucel (hydroxypropylcellulose) (HPC)
[18] = dose: 400.0 mg/kg/injection, schedule: Q01DX009 (ip), vehicle: Klucel (hydroxypropylcellulose) (HPC)
[19] = dose: 400.0 mg/kg/injection, schedule: Q04DX003 (ip), vehicle: Klucel (hydroxypropylcellulose) (HPC)
[20] = dose: 50.0 mg/kg/injection, schedule: Q01DX009 (ip), vehicle: Klucel (hydroxypropylcellulose) (HPC)
[21] = dose: 25.0 mg/kg/injection, schedule: Q01DX009 (ip), vehicle: Klucel (hydroxypropylcellulose) (HPC)
[22] = dose: 100.0 mg/kg/injection, schedule: Q01DX009 (ip), vehicle: saline
[23] = dose: 200.0 mg/kg/injection, schedule: Q01DX009 (ip), vehicle: saline
[24] = dose: 400.0 mg/kg/injection, schedule: Q01DX009 (ip), vehicle: saline

Measured: T/C

Cc1ccc(NC(=O)COc2ccc(Cl)cc2Cl)c(C)c1
inactive: [1] 104 % of control | [2] 89 % of control | [3] 101 % of control | [4] 91 % of control | [5] 96 % of control | [6] 91 % of control

COc1ccc(C(O)c2cc3ccccc3n2S(=O)(=O)c2ccccc2)cc1 (configuration not stated)
inactive: [7] 95 % of control | [8] 106 % of control | [9] 98 % of control

CC(C)(C)C(=O)Oc1ccc2ccccc2c1
inactive: dose: 75.0 mg/kg/injection, schedule: Q04DX002 (ip), vehicle: gum acacia 105 % of control | dose: 150.0 mg/kg/injection, schedule: Q04DX002 (ip), vehicle: gum acacia 92 % of control | dose: 300.0 mg/kg/injection, schedule: Q04DX002 (ip), vehicle: gum acacia 123 % of control

CC(C)(C)NCCC(=O)c1ccccc1
inactive: dose: 12.5 mg/kg/injection, schedule: Q04DX003 (ip), vehicle: saline 98 % of control | [10] 102 % of control | [11] 101 % of control

CN(C)c1nnc([N+](=O)[O-])s1
inactive: dose: 62.0 mg/kg/injection, schedule: Q04DX003 (ip), vehicle: Klucel (hydroxypropylcellulose) (HPC) 93 % of control | dose: 123.0 mg/kg/injection, schedule: Q04DX003 (ip), vehicle: Klucel (hydroxypropylcellulose) (HPC) 87 % of control

O=c1/c(=C/c2ccccc2)c2cccc3cccc1c32
inactive: dose: 25.0 mg/kg/injection, schedule: Q01DX001 (ip), vehicle: saline with Tween-80 97 % of control | dose: 50.0 mg/kg/injection, schedule: Q01DX001 (ip), vehicle: saline with Tween-80 93 % of control | [12] 97 % of control

COC(=O)C1CCC[N+](C)(C)C1 (configuration not stated)
inactive: [10] 95 % of control | [11] 97 % of control | [13] 94 % of control

CCCCCCCCCCCCCOc1ccc(S(=O)(=O)/N=C(\N)NC(N)=NCCCCCCCCCCCC)cc1
inactive: [7] 93 % of control | [8] 93 % of control | [9] 86 % of control

CCOC(=O)NC(C)(C)Cc1ccccc1
inactive: dose: 25.0 mg/kg/injection, schedule: Q01DX009 (ip), vehicle: saline with Tween-80 91 % of control | dose: 25.0 mg/kg/injection, schedule: Q04DX003 (ip), vehicle: saline with Tween-80 101 % of control | dose: 50.0 mg/kg/injection, schedule: Q01DX009 (ip), vehicle: saline with Tween-80 98 % of control | dose: 50.0 mg/kg/injection, schedule: Q04DX003 (ip), vehicle: saline with Tween-80 106 % of control | [1] 96 % of control | [2] 97 % of control and 103 % of control

CC(=O)ONc1nc(C)c(CCC2OCCO2)c(=O)[nH]1
inactive: [14] 95 % of control | [15] 105 % of control | [16] 102 % of control | [17] 105 % of control | [18] 95 % of control | [19] 98 % of control

CC(C)=CCC/C(C)=C/CN1C(=O)CCCC1=O
inactive: [12] 104 % of control | dose: 150.0 mg/kg/injection, schedule: Q04DX003 (ip), vehicle: saline with Tween-80 94 % of control | dose: 200.0 mg/kg/injection, schedule: Q01DX001 (ip), vehicle: saline with Tween-80 97 % of control | dose: 300.0 mg/kg/injection, schedule: Q04DX003 (ip), vehicle: saline with Tween-80 94 % of control | dose: 400.0 mg/kg/injection, schedule: Q01DX001 (ip), vehicle: saline with Tween-80 93 % of control | dose: 600.0 mg/kg/injection, schedule: Q04DX003 (ip), vehicle: saline with Tween-80 90 % of control

CC(C)(CNCc1ccco1)[N+](=O)[O-]
inactive: dose: 50.0 mg/kg/injection, schedule: Q01DX009 (ip), vehicle: other 103 % of control | dose: 100.0 mg/kg/injection, schedule: Q01DX009 (ip), vehicle: other 95 % of control | dose: 200.0 mg/kg/injection, schedule: Q01DX009 (ip), vehicle: other 106 % of control

CC1CCc2nc(C#N)c(N)nc2C1 (configuration not stated)
inactive: [20] 103 % of control | [14] 97 % of control | [16] 106 % of control

CCC(C)COC(=O)Nc1cccc(Cl)c1 (configuration not stated)
inactive: dose: 100.0 mg/kg/injection, schedule: Q01DX001 (ip), vehicle: other 102 % of control | dose: 200.0 mg/kg/injection, schedule: Q01DX001 (ip), vehicle: other 107 % of control | dose: 400.0 mg/kg/injection, schedule: Q01DX001 (ip), vehicle: other 105 % of control

CN(C)CCCC1C2CCC(C2)C1C#N (configuration not stated)
inactive: dose: 12.5 mg/kg/injection, schedule: Q01DX009 (ip), vehicle: Klucel (hydroxypropylcellulose) (HPC) 104 % of control | [21] 95 % of control | dose: 25.0 mg/kg/injection, schedule: Q04DX003 (ip), vehicle: Klucel (hydroxypropylcellulose) (HPC) 96 % of control | [20] 104 % of control | dose: 50.0 mg/kg/injection, schedule: Q04DX003 (ip), vehicle: Klucel (hydroxypropylcellulose) (HPC) 93 % of control

CCOCCCSP(SCCCOCC)SCCCOCC
inactive: [22] 101 % of control | [23] 102 % of control | [24] 104 % of control

CC1CC(=O)NC(=O)N1 (configuration not stated)
inactive: [1] 98 % of control | [2] 105 % of control | [3] 100 % of control | [4] 93 % of control | [5] 106 % of control | [6] 107 % of control

Cc1ccc(NC(=S)N2CCCC(C)C2)cc1C (configuration not stated)
inactive: [14] 102 % of control | [16] 100 % of control | [18] 102 % of control

CC(C)(C)NC/C(=C\c1ccccc1)C(=O)c1ccccc1
inactive: dose: 5.0 mg/kg/injection, schedule: Q01DX001 (ip), vehicle: saline 98 % of control | dose: 10.0 mg/kg/injection, schedule: Q01DX001 (ip), vehicle: saline 101 % of control | dose: 20.0 mg/kg/injection, schedule: Q01DX001 (ip), vehicle: saline 98 % of control | [21] 100 % of control | dose: 40.0 mg/kg/injection, schedule: Q01DX001 (ip), vehicle: saline 93 % of control | [20] 98 % of control | dose: 80.0 mg/kg/injection, schedule: Q01DX001 (ip), vehicle: saline 95 % of control | [14] 95 % of control | [15] 94 % of control | [2] 112 % of control | [17] 91 % of control | [19] 96 % of control

CN1CC(CO)C=C2c3cccc4[nH]cc(c34)CC21 (configuration not stated)
inactive: dose: 25.0 mg/kg/injection, schedule: Q01DX009 (ip), vehicle: alcohol 100 % of control | dose: 25.0 mg/kg/injection, schedule: Q04DX003 (ip), vehicle: alcohol 98 % of control | dose: 50.0 mg/kg/injection, schedule: Q01DX009 (ip), vehicle: alcohol 118 % of control | dose: 50.0 mg/kg/injection, schedule: Q04DX003 (ip), vehicle: alcohol 103 % of control | dose: 100.0 mg/kg/injection, schedule: Q01DX009 (ip), vehicle: alcohol 123 % of control | dose: 100.0 mg/kg/injection, schedule: Q04DX003 (ip), vehicle: alcohol 101 % of control | dose: 200.0 mg/kg/injection, schedule: Q01DX009 (ip), vehicle: alcohol 107 % of control | dose: 200.0 mg/kg/injection, schedule: Q04DX003 (ip), vehicle: alcohol 98 % of control | dose: 400.0 mg/kg/injection, schedule: Q04DX003 (ip), vehicle: alcohol 109 % of control

CCOC(=O)N1C=Cn2c(cnc2C)C1OCC (configuration not stated)
inactive: dose: 50.0 mg/kg/injection, schedule: Q01DX009 (ip), vehicle: saline 109 % of control | [22] 100 % of control and 92 % of control | [13] 91 % of control | [23] 110 % of control and 90 % of control | dose: 200.0 mg/kg/injection, schedule: Q04DX003 (ip), vehicle: saline 94 % of control | [24] 92 % of control
